In patent US9388313B2, “Water-insoluble coloring compound, ink, thermal transfer recording sheet, and color filter resist composition” (CANON KABUSHIKI KAISHA, priority 2012, dated 2016):
Read-outs that look alike come from different tables or passages of the source.

Columns and labels:
[1] = Evaluation of solvent solubility of water-insoluble coloring compound (visual); type: physicochemical; conditions: organic solvent or mixture, thermodynamic from solid, room temperature
Experimental: The solvent solubilities of Compounds (1), (4), (11), (18), (23), (26), and (28) as the water-insoluble coloring compounds and Comparative Compounds (1) and (2) were evaluated by dissolving 30 mg of each compound in 0.7 mL of each solvent, toluene, methanol, ethyl acetate, or chloroform, at room temperature, and visually observing each solution according to the following evaluation criteria:
B: suspended material slightly remained, and […]

[2] = Visual investigation of color filters; conditions: cyclohexanone-based resist composition
Experimental: Color filter resist composition (1) of the present invention was prepared by slowly adding 22 parts of Ink (A) to a solution of 6.7 parts of an acrylic copolymer composition (weight average molecular weight Mw: 10000) composed of 40% by mass of n-butyl methacrylate, 30% by mass of acrylic acid, and 30% by mass of hydroxyethyl methacrylate in monomer ratios, 1.3 parts of dipentaerythritol pentaacrylate, and 0.4 parts of 2-benzyl-2-dimethylamino-1-(4-morpholinophenyl)-butanone (photopolymerization initiator) in 96 parts of cyclohexanone, stirring the mixture at room temperature for 3 hours, and filtering the reaction solution through a filter of 1.5 μm pore size.
Color filter (1) was produced by spin-coating color filter resist composition (1) on a glass substrate and then drying at 90° C. for 3 min, exposure of the entire surface to light, and post-curing at 180° C.

[3] = 30 mg in 0.7 mL chloroform, read-out: Solubility Chloroform
[4] = 30 mg in 0.7 mL ethyl acetate, read-out: Solubility Ethyl acetate
[5] = 30 mg in 0.7 mL methanol, read-out: Solubility Methanol
[6] = 30 mg in 0.7 mL toluene, read-out: Solubility Toluene

Row | SMILES | solubility [1, 3] [mg/mL] | solubility [1, 4] [mg/mL] | solubility [1, 5] [mg/mL] | solubility [1, 6] [mg/mL] | solvent solubility (demonstrated by spin-coating uniformity) [2]
1 | CCCCCc1c(/N=N/c2ccccc2C(=O)N(CC(CC)CCCC)CC(CC)CCCC)c(O)[nH]c(=O)c1C(=O)N1CCCCC1 (centres unmarked) [Compound 26] | > 42.9 | > 42.9 | > 42.9 | > 42.9 | –
2 | CCCCC(CC)CN(CC(CC)CCCC)C(=O)c1ccccc1/N=N/c1c(O)[nH]c(=O)c(C(=O)NC(C)(C)C)c1C (centres unmarked) [Compound 23] | > 42.9 | > 42.9 | > 42.9 | > 42.9 | –
3 | CCCCC(CC)CN(CC(CC)CCCC)S(=O)(=O)c1ccc(/N=N/c2c(O)[nH]c(=O)c(C#N)c2C)cc1 (centres unmarked) [compound 1, reference compound] | < 42.9 | < 42.9 | < 42.9 | < 42.9 | poor solvent solubilities
4 | CCCCC(CC)CN(CC(CC)CCCC)S(=O)(=O)c1ccccc1/N=N/c1c(O)[nH]c(=O)c(C(=O)OCC)c1C (centres unmarked) [Compound 4] | > 42.9 | > 42.9 | > 42.9 | > 42.9 | –
5 | CCCCC(CC)CN(CC(CC)CCCC)C(=O)c1ccccc1/N=N/c1c(O)[nH]c(=O)c(C(=O)OCC)c1C (centres unmarked) [Compound 1] | > 42.9 | > 42.9 | > 42.9 | > 42.9 | high solvent solubilities
6 | CCOC(=O)c1c(C)c(/N=N/c2ccccc2C(=O)N(C2CCCCC2)C2CCCCC2)c(O)[nH]c1=O [Compound 28] | > 42.9 | > 42.9 | > 42.9 | > 42.9 | –
7 | CCCCC(CC)CN(CC(CC)CCCC)C(=O)c1cccc(/N=N/c2c(O)[nH]c(=O)c(C(=O)OCC)c2C)c1 (centres unmarked) [Compound 11] | > 42.9 | > 42.9 | > 42.9 | > 42.9 | high solvent solubilities
8 | CCCCC(CC)CN(CC(CC)CCCC)C(=O)c1ccc(/N=N/c2c(O)[nH]c(=O)c(C#N)c2C)cc1 (centres unmarked) [compound 2, reference compound] | < 42.9 | < 42.9 | < 42.9 | < 42.9 | poor solvent solubilities
9 | CCCCC(CC)CN(CC(CC)CCCC)C(=O)c1ccc(/N=N/c2c(O)[nH]c(=O)c(C(=O)OCC)c2C)cc1 (centres unmarked) [Compound 18] | > 42.9 | > 42.9 | > 42.9 | > 42.9 | high solvent solubilities
